The NIST ThermoML archive (doi:10.1021/je800110r)

Settings: 303.16 K, Liquid, Vibrating tube method

CCCCCCCCCC [decane]
Settings | mass density [kg/m3]
9263 kPa | 729.6
9277 kPa | 729.6
9288 kPa | 729.7
9302 kPa | 729.7
9321 kPa | 729.7
9332 kPa | 729.7
9348 kPa | 729.7
9360 kPa | 729.7
9372 kPa | 729.7
9392 kPa | 729.7
9407 kPa | 729.8
9419 kPa | 729.8
9433 kPa | 729.7
9449 kPa | 729.9
9461 kPa | 729.8
9473 kPa | 729.8
9491 kPa | 729.7
9509 kPa | 729.9
9521 kPa | 729.8
9535 kPa | 729.8
9552 kPa | 729.9
9566 kPa | 729.8
9581 kPa | 729.7
9595 kPa | 729.9
9608 kPa | 729.9
9624 kPa | 729.9
9639 kPa | 729.8
9655 kPa | 729.9
9672 kPa | 730
9685 kPa | 729.8
9704 kPa | 729.9
9725 kPa | 730
9738 kPa | 730
9754 kPa | 730
9767 kPa | 730.2
9778 kPa | 730
9793 kPa | 730.1
9808 kPa | 729.9
9820 kPa | 730
9831 kPa | 730.1
9841 kPa | 730.1
9855 kPa | 730.1
9870 kPa | 730.1
9881 kPa | 730.2
9900 kPa | 730.1
9913 kPa | 730.1
9921 kPa | 730.2
9935 kPa | 730.2
9946 kPa | 730.2
9956 kPa | 730.2
9969 kPa | 730.2
9979 kPa | 730.1
9992 kPa | 730.3
10003 kPa | 730.3
10021 kPa | 730.1
10032 kPa | 730.2
10048 kPa | 730.2
10090 kPa | 730.4
10106 kPa | 730.3
10117 kPa | 730.4
10132 kPa | 730.2
10145 kPa | 730.3
10164 kPa | 730.3
10176 kPa | 730.5
10188 kPa | 730.3
10206 kPa | 730.3
10221 kPa | 730.3
10231 kPa | 730.4
10246 kPa | 730.4
10276 kPa | 730.4
10289 kPa | 730.5
10302 kPa | 730.4
10318 kPa | 730.5
10331 kPa | 730.4
10343 kPa | 730.5
10358 kPa | 730.5
10374 kPa | 730.4
10385 kPa | 730.4
10401 kPa | 730.6
10414 kPa | 730.4
10432 kPa | 730.6
10446 kPa | 730.4
10458 kPa | 730.6
10475 kPa | 730.6
10487 kPa | 730.5
10499 kPa | 730.6
10515 kPa | 730.7
10527 kPa | 730.7
10545 kPa | 730.6
10562 kPa | 730.7
10574 kPa | 730.6
10584 kPa | 730.6
10602 kPa | 730.7
10616 kPa | 730.7
10630 kPa | 730.7
10646 kPa | 730.7
10659 kPa | 730.7
10672 kPa | 730.6
10688 kPa | 730.8
10707 kPa | 730.8
10717 kPa | 730.7
10729 kPa | 730.8
10748 kPa | 730.7
10765 kPa | 730.9
10779 kPa | 730.7
10791 kPa | 730.8
10806 kPa | 730.8
10823 kPa | 730.8
10836 kPa | 730.7
10856 kPa | 730.8
10873 kPa | 730.9
10886 kPa | 731
10904 kPa | 731
10917 kPa | 731.1
10937 kPa | 730.9
10954 kPa | 731
10969 kPa | 730.8
10986 kPa | 731
11001 kPa | 730.9
11014 kPa | 731
11030 kPa | 731.1
11049 kPa | 731
11062 kPa | 730.9
11082 kPa | 731
11102 kPa | 731.1
11116 kPa | 731.1
11133 kPa | 731
11149 kPa | 731
11162 kPa | 731
11186 kPa | 731.1
11200 kPa | 731.1
11216 kPa | 731.1
11234 kPa | 731.2
11257 kPa | 731.1
11275 kPa | 731.2
11291 kPa | 731.2
11312 kPa | 731.2
11330 kPa | 731.2
11347 kPa | 731.2
11365 kPa | 731.2
11379 kPa | 731.1
11396 kPa | 731.2
11417 kPa | 731.3
11436 kPa | 731.3
11452 kPa | 731.4
11469 kPa | 731.4
11485 kPa | 731.3
11504 kPa | 731.4
11519 kPa | 731.2
11533 kPa | 731.3
11553 kPa | 731.3
11570 kPa | 731.4
11589 kPa | 731.5
11609 kPa | 731.2
11623 kPa | 731.4
11643 kPa | 731.3
11660 kPa | 731.4
11677 kPa | 731.5
11695 kPa | 731.6
11712 kPa | 731.6
11732 kPa | 731.5
11749 kPa | 731.5
11762 kPa | 731.6
11782 kPa | 731.5
11797 kPa | 731.5
11820 kPa | 731.6
11843 kPa | 731.7
11858 kPa | 731.6
11881 kPa | 731.7
11901 kPa | 731.7
11916 kPa | 731.7
11942 kPa | 731.6
11962 kPa | 731.7
11978 kPa | 731.6
11996 kPa | 731.6
12012 kPa | 731.6
12034 kPa | 731.8
12055 kPa | 731.8
12070 kPa | 731.8
12097 kPa | 731.7
12118 kPa | 731.7
12135 kPa | 731.8
12159 kPa | 731.8
12183 kPa | 731.9
12196 kPa | 731.9
12215 kPa | 731.9
12234 kPa | 731.7
12254 kPa | 731.8
12270 kPa | 731.9
12289 kPa | 731.9
12305 kPa | 732
12321 kPa | 732.1
12346 kPa | 731.9
12371 kPa | 732
12391 kPa | 732.1
12410 kPa | 732.1
12430 kPa | 731.9
12452 kPa | 732.1
12470 kPa | 732.1
12489 kPa | 732.1
12509 kPa | 732
12535 kPa | 732.1
12555 kPa | 732
12575 kPa | 732.1
12592 kPa | 732.2
12618 kPa | 732.2
12635 kPa | 732.1
12653 kPa | 732.1
12679 kPa | 732.2
12702 kPa | 732.3
12723 kPa | 732.2
12747 kPa | 732.3
12767 kPa | 732.3
12785 kPa | 732.3
12809 kPa | 732.2
12833 kPa | 732.2
12850 kPa | 732.4
12872 kPa | 732.4
12896 kPa | 732.5
12917 kPa | 732.4
12942 kPa | 732.3
12960 kPa | 732.4
12984 kPa | 732.4
13003 kPa | 732.3
13025 kPa | 732.5
13047 kPa | 732.5
13074 kPa | 732.6
13102 kPa | 732.6
13121 kPa | 732.4
13143 kPa | 732.6
13165 kPa | 732.5
13187 kPa | 732.5
13210 kPa | 732.5
13232 kPa | 732.6
13251 kPa | 732.6
13274 kPa | 732.8
13296 kPa | 732.7
13316 kPa | 732.6
13344 kPa | 732.6
13373 kPa | 732.6
13393 kPa | 732.7
13422 kPa | 732.8
13451 kPa | 732.7
13471 kPa | 732.9
13501 kPa | 732.8
13528 kPa | 732.7
13551 kPa | 732.8
13581 kPa | 732.8
13605 kPa | 732.9
13631 kPa | 732.9
13656 kPa | 733
13679 kPa | 733
13699 kPa | 733.1
13723 kPa | 732.9
13747 kPa | 732.9
13776 kPa | 733
13797 kPa | 732.9
13819 kPa | 733.1
13850 kPa | 733
13875 kPa | 733.2
13903 kPa | 733.1
13931 kPa | 733.1
13957 kPa | 733.1
13985 kPa | 733.2
14017 kPa | 733.2
14039 kPa | 733.2
14064 kPa | 733.2
14097 kPa | 733.2
14129 kPa | 733.3
14154 kPa | 733.3
14184 kPa | 733.4
14209 kPa | 733.3
14239 kPa | 733.4
14262 kPa | 733.4
